In patent publication US7598255B2 (Janssen Pharmaceutica NV, priority 2005, dated 2009):
pKi: −log10 of the molar value. Counter-ions that a name gives are not always drawn.

How the values were obtained:
[1] = molecular target: human recombinant 5-HT6 receptor (Homo sapiens, UniProt P50406); assay: Affinity for 5-HT6 receptor binding sites, [3H]LSD; conditions: HEK-293 h5-HT6 membranes
[2] = molecular target: T1, human recombinant 5-HT2C receptor (Homo sapiens, UniProt P28335); assay: Affinity for 5HT2 receptor binding sites, h5-HT2C, [3H]mesulergine; conditions: CHO h5-HT2C membranes
T1 sequence (P28335 33-458): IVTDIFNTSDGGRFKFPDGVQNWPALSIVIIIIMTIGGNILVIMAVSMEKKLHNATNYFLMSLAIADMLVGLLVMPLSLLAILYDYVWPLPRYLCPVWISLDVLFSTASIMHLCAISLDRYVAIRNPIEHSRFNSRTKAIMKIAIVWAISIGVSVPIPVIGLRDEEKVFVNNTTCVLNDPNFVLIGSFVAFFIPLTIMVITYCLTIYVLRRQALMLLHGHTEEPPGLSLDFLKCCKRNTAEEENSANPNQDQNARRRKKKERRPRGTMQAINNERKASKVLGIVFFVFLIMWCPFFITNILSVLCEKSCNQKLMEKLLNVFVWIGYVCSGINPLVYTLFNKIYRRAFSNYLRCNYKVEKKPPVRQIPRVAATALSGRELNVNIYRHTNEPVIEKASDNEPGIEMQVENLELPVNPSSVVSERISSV

5-HT2B receptor = 5-HT2B receptor (Homo sapiens, UniProt P41595); assay: Affinity for 5HT2 receptor binding sites, h5-HT2B, [3H]mesulergine; conditions: CHO h5-HT2B membranes
Sequence of 5-HT2B receptor (P41595 whole entry): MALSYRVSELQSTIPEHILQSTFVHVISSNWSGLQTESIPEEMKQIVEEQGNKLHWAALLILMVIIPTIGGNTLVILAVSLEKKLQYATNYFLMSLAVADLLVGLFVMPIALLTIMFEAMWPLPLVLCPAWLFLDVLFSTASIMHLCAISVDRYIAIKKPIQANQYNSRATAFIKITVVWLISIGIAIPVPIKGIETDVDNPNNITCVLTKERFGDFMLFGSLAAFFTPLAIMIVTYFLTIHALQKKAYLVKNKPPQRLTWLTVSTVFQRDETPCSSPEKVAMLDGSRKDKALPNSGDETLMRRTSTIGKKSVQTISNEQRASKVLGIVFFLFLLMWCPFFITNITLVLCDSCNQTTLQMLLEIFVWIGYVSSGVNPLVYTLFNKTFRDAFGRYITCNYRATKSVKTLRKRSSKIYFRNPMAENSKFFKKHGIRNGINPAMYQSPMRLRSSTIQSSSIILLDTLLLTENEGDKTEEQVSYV
Experimental: (§1) Sigmoidal inhibition curves were generated and fitted by nonlinear regression analysis (GraphPad Prism).
Receptor binding was performed using the human recombinant 5-HT2A (GB: X57830), 5-HT2B (GB: Z36748) and 5-HT2C (GB: M81778) receptors. The affinity of the compounds for the 3 different human 5-HT2 receptor subtypes was evaluated by competitive radioligand binding assays using [^3H]ketanserin (h5-HT2A) or [^3H]mesulergine (h5-HT2B and h5-HT2C). The assays were performed on membranes prepared from NIH3T3 stably transfected with h5-HT2A or CHO stably transfected with h5-HT2B and h5-HT2C.

rat 5-HT7a receptor = rat 5-HT7a receptor (Rattus norvegicus, UniProt P32305); assay: Affinity for 5-HT7 receptor binding sites, radioligand binding with [3H]5-CT; conditions: membranes of HEK-293 cells with rat 5-HT7a, 1 nM [3H]5-CT
Sequence of rat 5-HT7a receptor (P32305 whole entry): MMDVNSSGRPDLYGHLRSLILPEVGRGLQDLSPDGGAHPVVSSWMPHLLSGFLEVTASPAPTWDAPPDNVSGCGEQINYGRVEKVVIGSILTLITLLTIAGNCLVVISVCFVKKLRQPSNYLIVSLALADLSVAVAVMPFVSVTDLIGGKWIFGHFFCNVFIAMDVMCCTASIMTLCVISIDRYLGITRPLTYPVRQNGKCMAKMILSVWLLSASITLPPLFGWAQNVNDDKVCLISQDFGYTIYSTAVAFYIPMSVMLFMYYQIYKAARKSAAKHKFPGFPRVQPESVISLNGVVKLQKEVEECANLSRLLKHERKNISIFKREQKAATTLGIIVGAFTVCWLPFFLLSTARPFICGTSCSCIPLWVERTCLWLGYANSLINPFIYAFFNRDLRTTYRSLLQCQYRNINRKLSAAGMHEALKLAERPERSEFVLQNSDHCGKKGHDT
Method in brief: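 Competition binding on membranes from HEK-293 cells stably expressing rat 5-HT7a, 135 μg protein/mL in 50 mM Tris-HCl pH 7.5, 5 mM EDTA. Incubated 60 min at RT with 1 nM [3H]5-CT and increasing compound concentrations; nonspecific binding with 10 μM 5-HT. Filtration and scintillation counting, in triplicate.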

5-HT2A receptor = 5-HT2A receptor (Homo sapiens, UniProt P28223); assay: Affinity for 5-HT2A receptor binding sites, radioligand binding with [3H]ketanserin; conditions: read-out: Ki 5-HT2A, rat cortex membranes (assay 2) or NIH3T3 h5-HT2A membranes (assay 3), table does not say which
Experimental: as §1
The affinity of the compounds for the rat 5-HT2A receptor was evaluated by competitive radioligand binding assay using [^3H]ketanserine as the radioligand. […] Brain tissue (rat cortex) was homogenized in 20 volumes per wet weight tissue of Tris-HCl buffer (50 mM, pH 7.4). The total membrane fraction was collected by centrifugation and washed by subsequent centrifugation runs (25 min at 25,000 g at 4° C.). Membranes were re-suspended in Tris-HCl buffer (50 mM, pH 7.4) containing 1 nM [^3H]ketanserin. Non-specific binding was estimated in the presence of 10 μM risperidone. The incubation was terminated by rapid filtration over Whatman GF/B filters pre-soaked in 0.1% polyethylenimine, and one washing step with 1 mL ice-cold Tris-HCl buffer, pH 7.4.

Sequence of human recombinant 5-HT6 receptor (P50406 whole entry): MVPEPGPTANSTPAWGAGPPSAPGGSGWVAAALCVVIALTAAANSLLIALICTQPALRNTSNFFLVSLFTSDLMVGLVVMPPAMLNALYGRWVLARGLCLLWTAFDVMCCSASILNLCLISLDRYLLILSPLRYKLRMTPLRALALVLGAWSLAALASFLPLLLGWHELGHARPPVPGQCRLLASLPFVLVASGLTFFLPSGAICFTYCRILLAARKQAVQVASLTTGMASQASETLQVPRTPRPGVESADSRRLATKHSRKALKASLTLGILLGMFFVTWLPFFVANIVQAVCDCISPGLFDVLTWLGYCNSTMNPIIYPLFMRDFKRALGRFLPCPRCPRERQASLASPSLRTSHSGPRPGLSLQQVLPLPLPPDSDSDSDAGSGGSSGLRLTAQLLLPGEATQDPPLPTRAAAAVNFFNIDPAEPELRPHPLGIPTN

| SMILES | pKi [1] | pKi [2] | pKi (5-HT2B receptor) | pKi (rat 5-HT7a receptor) | pKi (5-HT2A receptor) |
| --- | --- | --- | --- | --- | --- |
| CCC(C)c1nc2c(c(-c3ccc(F)cc3)n1)CNCC2 (stereo not shown) [Example 3, 2-sec-Butyl-4-(4-fluoro-phenyl)-5,6,7,8-tetrahydro-pyrido[4,3-d]pyrimidine hydrochloride] | < 5.00 | 5.99 | 5.65 | < 5.00 | – |
| Cc1ccc(-c2nc(Cc3ccccc3)nc3c2CNCC3)cc1 [Example 8, 2-Benzyl-4-p-tolyl-5,6,7,8-tetrahydro-pyrido[4,3-d]pyrimidine] | 6.70 | 6.49 | 6.00 | 6.00 | 7.70 |
| CC(C)c1nc2c(c(-c3ccc(Cl)cc3)n1)CNCC2 [Example 29, 4-(4-Chloro-phenyl)-2-isopropyl-5,6,7,8-tetrahydro-pyrido[4,3-d]pyrimidine] | < 5.00 | 5.70 | 5.80 | < 5.00 | 6.62 |
| Fc1ccc(-c2nc(C3CCCC3)nc3c2CCNCC3)cc1 [Example 46, 2-Cyclopentyl-4-(4-fluoro-phenyl)-6,7,8,9-tetrahydro-5H-pyrimido[4,5-d]azepine] | 7.00 | 6.70 | 7.52 | 6.92 | 7.85 |
| Cc1ccc(-c2nc(C3CCCC3)nc3c2CCNCC3)cc1 [Example 47, 2-Cyclopentyl-4-p-tolyl-6,7,8,9-tetrahydro-5H-pyrimido[4,5-d]azepine] | 7.92 | 7.66 | 9.00 | 7.52 | – |
| COc1ccc(-c2nc(C3CCCC3)nc3c2CCNCC3)cc1 [Example 48, 2-Cyclopentyl-4-(4-methoxy-phenyl)-6,7,8,9-tetrahydro-5H-pyrimido[4,5-d]azepine] | 7.62 | 7.00 | 8.52 | 7.40 | 7.70 |
| N#Cc1ccc(-c2nc(C3CCCC3)nc3c2CCNCC3)cc1 [Example 49, 4-(2-Cyclopentyl-6,7,8,9-tetrahydro-5H-pyrimido[4,5-d]azepin-4-yl)-benzonitrile] | 6.70 | 6.40 | 7.60 | 6.52 | 7.30 |
| Fc1ccc(-c2nc(Cc3ccccc3)nc3c2CCNCC3)cc1 [Example 54, 2-Benzyl-4-(4-fluoro-phenyl)-6,7,8,9-tetrahydro-5H-pyrimido[4,5-d]azepine] | 7.52 | 7.70 | 7.52 | 5.30 | 9.26 |
| Cc1ccc(-c2nc(Cc3ccccc3)nc3c2CCNCC3)cc1 [Example 55, 2-Benzyl-4-p-tolyl-6,7,8,9-tetrahydro-5H-pyrimido[4,5-d]azepine] | 8.07 | 7.80 | 8.60 | 7.46 | 9.38 |
| FC(F)(F)c1ccc(-c2nc(Cc3ccccc3)nc3c2CCNCC3)cc1 [Example 56, 2-Benzyl-4-(4-trifluoromethyl-phenyl)-6,7,8,9-tetrahydro-5H-pyrimido[4,5-d]azepine] | 7.52 | 7.42 | 7.66 | 6.74 | 9.10 |
| CN1CCc2nc(C3CCCC3)nc(-c3ccc(F)cc3)c2CC1 [Example 58, 2-Cyclopentyl-4-(4-fluoro-phenyl)-7-methyl-6,7,8,9-tetrahydro-5H-pyrimido[4,5-d]azepine] | 7.00 | 7.52 | 7.40 | < 5.00 | 8.70 |
| Cc1ccc(-c2nc(C3CCCC3)nc3c2CCN(C)CC3)cc1 [Example 59, 2-Cyclopentyl-7-methyl-4-p-tolyl-6,7,8,9-tetrahydro-5H-pyrimido[4,5-d]azepine] | 7.70 | 7.54 | 8.11 | 7.00 | 8.82 |
| COc1ccc(-c2nc(C3CCCC3)nc3c2CCN(C)CC3)cc1 [Example 60, 2-Cyclopentyl-4-(4-methoxy-phenyl)-7-methyl-6,7,8,9-tetrahydro-5H-pyrimido[4,5-d]azepine] | 7.22 | 7.22 | 8.00 | 6.40 | 8.22 |
| Cc1ccc(-c2nc(Cc3ccccc3)nc3c2CCN(C)CC3)cc1 [Example 61, 2-Benzyl-7-methyl-4-p-tolyl-6,7,8,9-tetrahydro-5H-pyrimido[4,5-d]azepine] | 7.70 | 7.46 | 7.82 | 6.60 | 8.72 |
| CC(C)c1nc2c(c(-c3ccc(F)cc3)n1)CCCNC2 [Example 65, 4-(4-Fluoro-phenyl)-2-isopropyl-6,7,8,9-tetrahydro-5H-pyrimido[4,5-c]azepine hydrochloride] | < 5.00 | 6.24 | 6.52 | < 5.00 | 7.70 |
| Fc1ccc(-c2nc(Cc3ccccc3)nc3c2CNCCC3)cc1 [Example 69, 2-Benzyl-4-(4-fluoro-phenyl)-6,7,8,9-tetrahydro-5H-1,3,6-triaza-benzocycloheptene hydrochloride] | 5.15 | 6.19 | < 5.00 | < 5.00 | – |
| Fc1ccc(-c2nc(Cc3ccccc3)nc3c2CCN(Cc2ccccc2)C3)cc1 [Example 70, 2,7-Dibenzyl-4-(4-fluoro-phenyl)-5,6,7,8-tetrahydro-pyrido[3,4-d]pyrimidine hydrochloride] | 6.60 | 5.43 | < 5.00 | < 5.00 | 6.93 |
| Cc1ccc(-c2nc(Cc3ccccc3)nc3c2CCN(Cc2ccccc2)C3)cc1 [Example 71, 2,7-Dibenzyl-4-p-tolyl-5,6,7,8-tetrahydro-pyrido[3,4-d]pyrimidine] | 6.52 | 5.45 | 5.36 | < 5.00 | 5.99 |
| Cc1ccc(-c2nc(Cc3ccccc3)nc3c2CCNC3)cc1 [Example 77, 2-Benzyl-4-p-tolyl-5,6,7,8-tetrahydro-pyrido[3,4-d]pyrimidine hydrochloride] | 6.40 | 6.89 | 6.70 | 7.66 | 7.82 |
| CC(C)c1nc2c(c(-c3ccc(F)cc3)n1)CCNC2 [Example 80, 4-(4-Fluoro-phenyl)-2-isopropyl-5,6,7,8-tetrahydro-pyrido[3,4-d]pyrimidine hydrochloride] | 5.55 | 6.03 | 6.80 | < 5.00 | 7.96 |
| CC(C)N1CCc2c(nc(Cc3ccccc3)nc2-c2ccc(F)cc2)C1 [Example 83, 2-Benzyl-4-(4-fluoro-phenyl)-7-isopropyl-5,6,7,8-tetrahydro-pyrido[3,4-d]pyrimidine] | 6.64 | 6.52 | 6.00 | < 5.00 | 7.52 |
| Cc1ccc(-c2nc(C(C)C)nc3c2CNCC3C)cc1 (stereo not shown) [Example 102, 2-Isopropyl-8-methyl-4-p-tolyl-5,6,7,8-tetrahydro-pyrido[4,3-d]pyrimidine hydrochloride] | 6.43 | 6.64 | 6.82 | < 5.00 | 7.70 |
| CC(C)c1nc2c(c(-c3ccc(F)cc3)n1)CCC(N1CCCC1)C2 (stereo not shown) [Example 107, 4-(4-Fluoro-phenyl)-2-isopropyl-7-pyrrolidin-1-yl-5,6,7,8-tetrahydro-quinazoline] | 5.40 | 6.30 | 6.56 | < 5.00 | 7.92 |
| CNC1CCc2nc(C(C)C)nc(-c3ccc(F)cc3)c2C1 (stereo not shown) [Example 109, [4-(4-Fluoro-phenyl)-2-isopropyl-5,6,7,8-tetrahydro-quinazolin-6-yl]-methyl-amine hydrochloride] | < 5.00 | < 5.00 | < 5.00 | < 5.00 | 6.40 |
| Cc1ccc(-c2cc(CCN)nc(Cc3ccccc3)n2)cc1 [Example 115, 2-(2-Benzyl-6-p-tolyl-pyrimidin-4-yl)-ethylamine] | – | < 5.00 | 5.30 | 5.30 | 6.00 |
| Cc1ccc(-c2nc(Cc3ccc(F)cc3)ncc2CN(C)C)cc1 [Example 116, [2-(4-Fluoro-benzyl)-4-p-tolyl-pyrimidin-5-ylmethyl]-dimethyl-amine] | – | < 5.00 | < 5.00 | < 5.00 | 5.70 |
| Fc1ccc(-c2nc(-c3ccccc3)nc3c2CNCC3)cc1 [Example 117, 4-(4-Fluoro-phenyl)-2-phenyl-5,6,7,8-tetrahydro-pyrido[4,3-d]pyrimidine] | – | 5.40 | 6.00 | < 5.00 | 7.30 |
| CN(C)CCc1cc(-c2ccc(F)cc2)nc(C(C)(C)C)n1 [Example 167, {2-[2-tert-Butyl-6-(4-fluoro-phenyl)-pyrimidin-4-yl]-ethyl}-dimethyl-amine] | – | 6.70 | 7.85 | 6.35 | 8.15 |
